Reference: patent US12590099B2, “Inhibitors of histone deacetylase useful for the treatment or prevention of HIV infection” (Merck Sharp & Dohme LLC, priority 2018, dated 2026)
Read-outs that look alike come from different tables or passages of the source.

Tests used:
Recombinant human HDAC8 = molecular target: T1, Recombinant human HDAC8 (Homo sapiens, UniProt Q9BY41); test: Human HDAC enzyme inhibitor Fluor-de-Lys assay, HDAC8; type: biochemical
T1 construct: purchased Enzo Life Sciences BML-SE145-0100
T1 sequence (Q9BY41 1-377): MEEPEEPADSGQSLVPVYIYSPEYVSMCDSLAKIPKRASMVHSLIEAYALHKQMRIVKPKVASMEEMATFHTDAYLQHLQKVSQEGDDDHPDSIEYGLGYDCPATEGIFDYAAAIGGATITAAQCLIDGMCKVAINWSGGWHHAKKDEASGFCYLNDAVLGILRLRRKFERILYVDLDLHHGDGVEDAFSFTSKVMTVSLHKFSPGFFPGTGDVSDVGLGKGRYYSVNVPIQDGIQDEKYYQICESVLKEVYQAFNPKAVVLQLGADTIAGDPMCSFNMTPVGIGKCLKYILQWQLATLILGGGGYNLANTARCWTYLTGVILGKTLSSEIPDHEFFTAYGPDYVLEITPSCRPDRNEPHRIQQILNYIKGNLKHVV
Procedure: (§1) Human HDAC Enzyme Inhibitor Fluor-De-Lys Assay
(§2) Recombinant human HDAC8 (BML-SE145-0100) and HDAC10 (BML-SE559-0050) enzymes, HDAC substrates BML-KI104 and BML-KI178, and HDAC developer solutions BML-KI105 and BML-KI176 were purchased from Enzo Life Sciences. […] HDAC inhibitor suberoylanilide hydroxamic acid (SAHA) was obtained from Indofine and trichostatin A (TSA) was obtained from Sigma-Aldrich.
(§3) The histone deacetylase activities of HDAC1, HDAC2, HDAC3, HDAC6, and HDAC8 were measured in modified FLUOR DE LYS assays in 384-well format. In this assay, HDAC enzymes are initially incubated with an ε-acetyl (or -trifluoroacetyl)-L-lysine-containing substrate with a C-terminal amide having aminomethylcoumarin as the amine component. HDACs cleave the ε-acetyl group, rendering the resulting product susceptible to AMC cleavage by trypsin. The released AMC is then detected by its fluorescence.
(§4) The HDAC3/SMRT assay employed buffer B, consisting of 20 mM HEPES, pH 8.0, 1 mM MgCl2, 50 mM NaCl, 2.7 mM KCl, 0.05% BSA, 0.005% Tween 20, and 10 μM IP4. […] The HDAC8 assay employed buffer D, consisting of 20 mM HEPES, pH 8.0, 1 mM MgCl2, 100 mM NaCl, 20 mM KCl, 0.10% n-octyl-β-D-glucoside (Anatrace) and 0.05% BSA. All steps were performed at room temperature (23° C.). The assay was performed by pre-incubating serial dilutions of test compounds with the target HDAC prior to initiation with substrate. Each compound was titrated in a 10-point dose response, using a 1:3 fold dilution scheme, with 0.15 ul of solution added by ECH0555 to the plate, followed by the addition of 20 μl of the appropriate HDAC isoform diluted in appropriate assay buffer. […] Final conditions used for each assay were: 1. HDAC 1, 0.3 nM total enzyme, 20 μM substrate BML-KI104; 2. […] HDAC 3/SMRT, 0.3 nM total enzyme, 20 μM substrate BML-KI104; 4. […] The reactions were stopped and developed by addition of 30 ul of HDAC developer solution containing a saturating level of HDAC inhibitor as follows: 1.

HDAC6 = molecular target: T2, HDAC6 (Homo sapiens, UniProt Q9UBN7); test: Human HDAC enzyme inhibitor Fluor-de-Lys assay, HDAC6; type: biochemical
T2 sequence (Q9UBN7 1-1215): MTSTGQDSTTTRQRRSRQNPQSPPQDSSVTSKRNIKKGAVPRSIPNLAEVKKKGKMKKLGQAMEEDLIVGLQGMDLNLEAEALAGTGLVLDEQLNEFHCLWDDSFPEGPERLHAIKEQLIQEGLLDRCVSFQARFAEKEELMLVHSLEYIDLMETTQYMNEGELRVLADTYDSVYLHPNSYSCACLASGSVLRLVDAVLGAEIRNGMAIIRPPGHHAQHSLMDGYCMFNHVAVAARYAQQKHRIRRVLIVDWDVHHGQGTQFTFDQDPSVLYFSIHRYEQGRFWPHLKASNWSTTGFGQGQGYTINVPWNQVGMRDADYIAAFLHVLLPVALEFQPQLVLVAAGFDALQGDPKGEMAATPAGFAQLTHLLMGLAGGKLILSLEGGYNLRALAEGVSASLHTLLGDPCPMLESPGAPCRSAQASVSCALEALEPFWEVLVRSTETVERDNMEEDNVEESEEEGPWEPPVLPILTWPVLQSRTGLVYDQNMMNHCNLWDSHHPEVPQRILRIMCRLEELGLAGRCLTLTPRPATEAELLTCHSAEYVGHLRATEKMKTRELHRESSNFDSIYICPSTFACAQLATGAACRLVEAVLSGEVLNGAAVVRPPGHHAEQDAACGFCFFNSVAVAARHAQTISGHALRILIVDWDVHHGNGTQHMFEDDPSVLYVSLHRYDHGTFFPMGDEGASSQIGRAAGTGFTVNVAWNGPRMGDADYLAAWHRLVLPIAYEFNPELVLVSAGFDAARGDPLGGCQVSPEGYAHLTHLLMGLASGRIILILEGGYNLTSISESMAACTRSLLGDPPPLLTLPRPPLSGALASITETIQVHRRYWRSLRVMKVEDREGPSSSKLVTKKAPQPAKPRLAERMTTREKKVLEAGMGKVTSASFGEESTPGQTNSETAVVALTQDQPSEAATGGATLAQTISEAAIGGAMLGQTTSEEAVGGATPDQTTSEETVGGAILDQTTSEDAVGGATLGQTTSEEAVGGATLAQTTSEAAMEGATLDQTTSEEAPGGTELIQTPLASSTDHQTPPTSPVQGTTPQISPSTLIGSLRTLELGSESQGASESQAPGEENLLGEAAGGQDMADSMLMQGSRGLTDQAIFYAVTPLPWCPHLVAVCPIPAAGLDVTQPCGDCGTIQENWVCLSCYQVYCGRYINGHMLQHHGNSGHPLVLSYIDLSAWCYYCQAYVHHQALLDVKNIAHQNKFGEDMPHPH
Procedure: as §1, §2, §3, §4

KARN cells (Jurkat 2C4) = test: cells; type: cell-based
Procedure: KARN cells (Jurkat 2C4) were licensed from the laboratory of Dr. John Karn, Case Western Reserve University, School of Medicine. […] An atmosphere of 5% CO2 and 90% humidity was used for all culture work.
Day 1: After the 3-4 day growth period, the cells were transferred from the T175 flask to a 50 ml conical tube and gently pelleted at 1000 rpm for 5 minutes. […] These flasks were returned to the incubator.
Day 2: Cell Preparation: The next day, the cells were transferred from each T175 flask to an individual 50 ml conical tube and gently pelleted at 1000 rpm for 5 minutes. The cells were gently resuspended in assay media (30 ml) and pelleted again. […] The cells were counted using the ViCell (Beckman Coulter) and diluted as necessary. […] The plates were covered and returned to the incubator prior to compound addition.
The reference compounds, DMSO and SAHA were then added to the compound plate. […] The final high concentration for SAHA and the test compounds in the assays was 40 μM. The final DMSO concentration in all wells was 0.4%. The minimal induction reference compound used was DMSO and the maximal induction reference compound used was SAHA (2 μM final concentration in the assay).
Day 3: The luciferase detection reagent was prepared by transferring the contents of one bottle of Steady-Glo buffer to one bottle of Steady-Glo aubstrate (Steady-Glo Luciferase Assay System, Promega, catalog number E2520), followed by gently mixing until the substrate was thoroughly dissolved and the solution was equilibrated to room temperature. […] The Steady-Glo Reagent was added to the plates (30 μl/well), which were then covered with a black lid and incubated for 10 minutes at room temperature. The plates were then read for luminescence on an Envision (Perkin Elmer) using the ultrasensitive mode (US LUM), […] and 384-well aperture. Luminescence counts in the DMSO reference wells were considered as 0% induction, while those in the 2 μM SAHA reference wells were considered as 100% induction. Dose response curves were plotted as test compound concentration (X-axis) vs. percent activation (Y-axis) using a 4-parameter fit based on the Levenberg-Marquardt algorithm.

[1] = Homo sapiens, Jurkat, read-out: Karn EC50 (nM) 0.1% NHS, 0.1% normal human serum
[2] = Homo sapiens, Jurkat, read-out: Karn EC50 (nM) 5% NHS, 5% normal human serum
[3] = recombinant human HDAC8, Fluor-de-Lys assay
[4] = Homo sapiens, Jurkat, read-out: Karn EC50 (nM) 0.1% NHS, 0.1% normal human serum, luciferase induction, 100% = 2 μM SAHA
[5] = Homo sapiens, Jurkat, read-out: Karn EC50 (nM) 5% NHS, 5% normal human serum, luciferase induction, 100% = 2 μM SAHA
[6] = read-out: Karn EC50 (nM) 0.1% NHS, 0.1% normal human serum, luciferase induction, 100% = 2 μM SAHA
[7] = read-out: Karn EC50 (nM) 5% NHS, 5% normal human serum, luciferase induction, 100% = 2 μM SAHA

SMILES | IC50 (Recombinant human HDAC8; [3]) [nM] | IC50 (HDAC6; HDAC6, Fluor-de-Lys assay) [nM] | EC50 (KARN cells (Jurkat 2C4); [4]) [nM] | EC50 (KARN cells (Jurkat 2C4); [5]) [nM] | other results
CCC(=O)CCCCC[C@H](NC(=O)[C@H]1CC12CCN(C)CC2)c1ncc(-c2cc3ncccc3nc2OC)[nH]1 [Compound 142] | – | – | – | – | IC50 (Recombinant human HDAC8): 5120 nM; IC50 (HDAC6): 3670 nM; EC50 (KARN cells (Jurkat 2C4); [1]): 311 nM; EC50 (KARN cells (Jurkat 2C4); [2]): 544 nM
CCC(=O)CCCCC[C@H](NC(=O)[C@H]1CC12CCN(CC1CC1)CC2)c1ncc(-c2cc3ccccc3nc2OC)[nH]1 [Compound 336] | 3130 | 189 | 16 | 30 | –
CCN1CCC2(CC1)C[C@@H]2C(=O)N[C@@H](CCCCCC(=O)CC1CC1)c1ncc(-c2cccnc2OC)[nH]1 [Compound 202] | – | – | – | – | IC50 (Recombinant human HDAC8): 8780 nM; IC50 (HDAC6): 34900 nM; EC50 (KARN cells (Jurkat 2C4); [1]): 210 nM; EC50 (KARN cells (Jurkat 2C4); [2]): 501 nM
CCC(=O)CCCCC[C@H](NC(=O)[C@H]1CC12CCN(CC)CC2)c1ncc(-c2cc3ccccc3nc2OC)o1 [Compound 124] | – | – | – | – | IC50 (Recombinant human HDAC8): 16000 nM; IC50 (HDAC6): 137 nM; EC50 (KARN cells (Jurkat 2C4); [1]): 111 nM; EC50 (KARN cells (Jurkat 2C4); [2]): 151 nM
CCC(=O)CCCCC[C@H](NC(=O)[C@@H]1CC12CCN(C)CC2)c1ncc(-c2cc3ccccc3nc2O)[nH]1 (single isomer, unassigned) [Compound 324] | – | – | 1170 | 1210 | –
CCC(=O)CCCCC[C@H](NC(=O)[C@H]1CC12CCN(CC)CC2)c1ncc(-c2cc3nn(C)cc3cc2OC)[nH]1 [Compound 190] | – | – | – | – | IC50 (Recombinant human HDAC8): 3110 nM; IC50 (HDAC6): 562 nM; EC50 (KARN cells (Jurkat 2C4); [1]): 967 nM; EC50 (KARN cells (Jurkat 2C4); [2]): 1450 nM
CCC(=O)CCCCC[C@H](NC(=O)[C@H]1CC12CCN(C(N)=O)CC2)c1ncc(-c2cc3ccccc3nc2OC)[nH]1 (single isomer, unassigned) [Compound 319] | 2270 | 1170 | 1560 | 9850 | –
CCC(=O)CCCCC[C@H](NC(=O)[C@H]1CC12CCN(Cc1cccnc1)CC2)c1ncc(-c2cc3ccccc3nc2OC)[nH]1 [Compound 294] | 4920 | 415 | 63 | 277 | –
CCC(=O)CCCCC[C@H](NC(=O)[C@H]1CC12CCN(C)CC2)c1ncc(-c2cc3ccccc3nc2O)[nH]1 (single isomer, unassigned) [Compound 325] | – | – | 154 | 216 | –
CCC(=O)CCCCC[C@H](NC(=O)[C@H]1CC12CCN(CC)CC2)c1ncc(-c2ccc(OC)cc2OC)[nH]1 [Compound 183] | – | – | – | – | IC50 (Recombinant human HDAC8): 10400 nM; IC50 (HDAC6): 898 nM; EC50 (KARN cells (Jurkat 2C4); [1]): 58 nM; EC50 (KARN cells (Jurkat 2C4); [2]): 93 nM
CCC(=O)CCCCC[C@H](NC(=O)[C@H]1CC12CCN(C)CC2)c1ncc(-c2ccc3ncccc3c2)[nH]1 [Compound 282] | – | – | – | – | EC50 (KARN cells (Jurkat 2C4); [6]): 294 nM; EC50 (KARN cells (Jurkat 2C4); [7]): 247 nM
CCC(=O)CCCCC[C@H](NC(=O)C1CCC2(CC1)CN(C)C2)c1ncc(-c2cc3ccccc3nc2OC)[nH]1 [Compound 316] | 1680 | 387 | – | – | EC50 (KARN cells (Jurkat 2C4); [6]): 151 nM; EC50 (KARN cells (Jurkat 2C4); [7]): 660 nM
CCC(=O)CCCCC[C@H](NC(=O)[C@H]1CC12CCCN(C)C2)c1ncc(-c2cc3ccccc3nc2OC)[nH]1 (some centres unmarked) [Compound 287] | 2780 | 351 | – | – | EC50 (KARN cells (Jurkat 2C4); [6]): 81 nM; EC50 (KARN cells (Jurkat 2C4); [7]): 325 nM
CCC(=O)CCCCC[C@H](NC(=O)[C@@H]1CC12CCN(CC)CC2)c1ncc(-c2cc3ccccc3[nH]c2=O)[nH]1 [Compound 292] | > 4500 | > 1500 | 992 | 1380 | –
CCC(=O)CCCCC[C@H](NC(=O)C1CC2(C1)CN(CC)C2)c1ncc(-c2cc3ccccc3nc2OC)[nH]1 [Compound 279] | 5120 | 362 | 160 | 860 | –
CCC(=O)CCCCC[C@H](NC(=O)[C@@H]1CC12CCN(C)CC2)c1ncc(-c2ccc3ncccc3c2)[nH]1 [Compound 281] | – | – | 2140 | 2170 | –
CCC(=O)CCCCC[C@H](NC(=O)[C@H]1C[C@]12CCN(C)C2)c1ncc(-c2cc3ccccc3nc2OC)[nH]1 [Compound 327] | 3870 | – | 73 | 232 | –
